Test system: hemoglobin-haptoglobin complex
Test: Stability of hemoglobin (as hemoglobin-haptoglobin complex) in samples preserved at 37° C. in preservation solution containing 1 unit/L haptoglobin, Hb measured by latex agglutination method (Examples 1 to 7)
Set-up: species or system human
In short: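 Latex agglutination (anti-human hemoglobin rabbit polyclonal latex) measured Hb in samples stored at 37 °C up to 21 days; values expressed as % recovery versus day 0. Preservation solution: HEPES 40 mmol/L pH 6.8, BSA 0.1%, NaN3 0.1%, haptoglobin 1 unit/L, phenylboronic acid 0–100 mmol/L, optional sugars; ~300 µg/L Hb, 0.5% feces or none.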

[1] = Feces 3, phenylboronic acid 0.5 mmol/L, 37° C., 7 days
[2] = Feces 3, phenylboronic acid 0.5 mmol/L, 37° C., 14 days
[3] = Feces 3, phenylboronic acid 0.5 mmol/L, 37° C., 21 days
[4] = Feces 3, phenylboronic acid 1 mmol/L, 37° C., 7 days
[5] = Feces 3, phenylboronic acid 1 mmol/L, 37° C., 14 days
[6] = Feces 3, phenylboronic acid 1 mmol/L, 37° C., 21 days
[7] = Feces 3, phenylboronic acid 15 mmol/L, 37° C., 0 days
[8] = Feces 3, phenylboronic acid 15 mmol/L, 37° C., 7 days
[9] = Feces 3, phenylboronic acid 15 mmol/L, 37° C., 14 days
[10] = Feces 3, phenylboronic acid 15 mmol/L, 37° C., 21 days
[11] = Feces 3, phenylboronic acid 50 mmol/L, 37° C., 0 days
[12] = Feces 3, phenylboronic acid 50 mmol/L, 37° C., 7 days
[13] = Feces 3, phenylboronic acid 50 mmol/L, 37° C., 14 days
[14] = Feces 3, phenylboronic acid 50 mmol/L, 37° C., 21 days
[15] = Feces 3, phenylboronic acid 100 mmol/L, 37° C., 0 days
[16] = Feces 3, phenylboronic acid 100 mmol/L, 37° C., 7 days
[17] = Feces 3, phenylboronic acid 100 mmol/L, 37° C., 14 days
[18] = Feces 3, phenylboronic acid 100 mmol/L, 37° C., 21 days
[19] = No feces, phenylboronic acid 0.5 mmol/L, 37° C., 7 days
[20] = No feces, phenylboronic acid 0.5 mmol/L, 37° C., 14 days
[21] = No feces, phenylboronic acid 0.5 mmol/L, 37° C., 21 days
[22] = No feces, phenylboronic acid 1 mmol/L, 37° C., 7 days
[23] = No feces, phenylboronic acid 1 mmol/L, 37° C., 14 days
[24] = No feces, phenylboronic acid 1 mmol/L, 37° C., 21 days
[25] = No feces, phenylboronic acid 15 mmol/L, 37° C., 0 days
[26] = No feces, phenylboronic acid 15 mmol/L, 37° C., 7 days
[27] = No feces, phenylboronic acid 15 mmol/L, 37° C., 14 days
[28] = No feces, phenylboronic acid 15 mmol/L, 37° C., 21 days
[29] = No feces, phenylboronic acid 50 mmol/L, 37° C., 0 days
[30] = No feces, phenylboronic acid 50 mmol/L, 37° C., 7 days
[31] = No feces, phenylboronic acid 50 mmol/L, 37° C., 14 days
[32] = No feces, phenylboronic acid 50 mmol/L, 37° C., 21 days
[33] = No feces, phenylboronic acid 100 mmol/L, 37° C., 0 days
[34] = No feces, phenylboronic acid 100 mmol/L, 37° C., 7 days
[35] = No feces, phenylboronic acid 100 mmol/L, 37° C., 14 days
[36] = No feces, phenylboronic acid 100 mmol/L, 37° C., 21 days

OB(O)c1ccccc1 [phenylboronic acid]
Recovery ratio with respect to Hb concentration after 0 days (Feces 3, phenylboronic acid 0.5 mmol/L, 37° C., 0 days): 100% | Hb concentration [1]: 133 µg/L | Recovery ratio with respect to Hb concentration after 0 days [1]: 47% | Hb concentration [2]: 104 µg/L | Recovery ratio with respect to Hb concentration after 0 days [2]: 37% | Hb concentration [3]: 93 µg/L | Recovery ratio with respect to Hb concentration after 0 days [3]: 33% | Recovery ratio with respect to Hb concentration after 0 days (Feces 3, phenylboronic acid 1 mmol/L, 37° C., 0 days): 100% | Hb concentration [4]: 159 µg/L | Recovery ratio with respect to Hb concentration after 0 days [4]: 57% | Hb concentration [5]: 131 µg/L | Recovery ratio with respect to Hb concentration after 0 days [5]: 47% | Hb concentration [6]: 115 µg/L | Recovery ratio with respect to Hb concentration after 0 days [6]: 41% | Hb concentration (Feces 3, phenylboronic acid 15 mmol/L, no sugar, 0 days at 37° C.): 288 µg/L | Hb concentration (Feces 3, phenylboronic acid 15 mmol/L, no sugar, 7 days at 37° C.): 224 µg/L | Hb concentration (Feces 3, phenylboronic acid 15 mmol/L, no sugar, 14 days at 37° C.): 200 µg/L | Hb concentration (Feces 3, phenylboronic acid 15 mmol/L, no sugar, 21 days at 37° C.): 185 µg/L | Hb concentration [7]: 288 µg/L | Recovery ratio with respect to Hb concentration after 0 days [7]: 100% | Hb concentration [8]: 224 µg/L | Recovery ratio with respect to Hb concentration after 0 days [8]: 78% | Hb concentration [9]: 200 µg/L | Recovery ratio with respect to Hb concentration after 0 days [9]: 69% | Hb concentration [10]: 185 µg/L | Recovery ratio with respect to Hb concentration after 0 days [10]: 64% | Hb concentration [11]: 274 µg/L | Recovery ratio with respect to Hb concentration after 0 days [11]: 100% | Hb concentration [12]: 204 µg/L | Recovery ratio with respect to Hb concentration after 0 days [12]: 74% | Hb concentration [13]: 176 µg/L | Recovery ratio with respect to Hb concentration after 0 days [13]: 64% | Hb concentration [14]: 158 µg/L | Recovery ratio with respect to Hb concentration after 0 days [14]: 58% | Hb concentration [15]: 247 µg/L | Recovery ratio with respect to Hb concentration after 0 days [15]: 100% | Hb concentration [16]: 156 µg/L | Recovery ratio with respect to Hb concentration after 0 days [16]: 63% | Hb concentration [17]: 88 µg/L | Recovery ratio with respect to Hb concentration after 0 days [17]: 36% | Hb concentration [18]: 53 µg/L | Recovery ratio with respect to Hb concentration after 0 days [18]: 21% | Recovery ratio with respect to Hb concentration after 0 days (No feces, phenylboronic acid 0.5 mmol/L, 37° C., 0 days): 100% | Hb concentration [19]: 248 µg/L | Recovery ratio with respect to Hb concentration after 0 days [19]: 96% | Hb concentration [20]: 243 µg/L | Recovery ratio with respect to Hb concentration after 0 days [20]: 95% | Hb concentration [21]: 246 µg/L | Recovery ratio with respect to Hb concentration after 0 days [21]: 96% | Recovery ratio with respect to Hb concentration after 0 days (No feces, phenylboronic acid 1 mmol/L, 37° C., 0 days): 100% | Hb concentration [22]: 244 µg/L | Recovery ratio with respect to Hb concentration after 0 days [22]: 92% | Hb concentration [23]: 241 µg/L | Recovery ratio with respect to Hb concentration after 0 days [23]: 91% | Hb concentration [24]: 244 µg/L | Recovery ratio with respect to Hb concentration after 0 days [24]: 92% | Hb concentration (No feces, phenylboronic acid 15 mmol/L, no sugar, 0 days at 37° C.): 286 µg/L | Hb concentration (No feces, phenylboronic acid 15 mmol/L, no sugar, 7 days at 37° C.): 262 µg/L | Hb concentration (No feces, phenylboronic acid 15 mmol/L, no sugar, 14 days at 37° C.): 253 µg/L | Hb concentration [25]: 286 µg/L | Recovery ratio with respect to Hb concentration after 0 days [25]: 100% | Hb concentration [26]: 262 µg/L | Recovery ratio with respect to Hb concentration after 0 days [26]: 92% | Hb concentration [27]: 253 µg/L | Recovery ratio with respect to Hb concentration after 0 days [27]: 88% | Hb concentration [28]: 264 µg/L | Recovery ratio with respect to Hb concentration after 0 days [28]: 92% | Hb concentration [29]: 260 µg/L | Recovery ratio with respect to Hb concentration after 0 days [29]: 100% | Hb concentration [30]: 242 µg/L | Recovery ratio with respect to Hb concentration after 0 days [30]: 93% | Hb concentration [31]: 228 µg/L | Recovery ratio with respect to Hb concentration after 0 days [31]: 88% | Hb concentration [32]: 235 µg/L | Recovery ratio with respect to Hb concentration after 0 days [32]: 90% | Hb concentration [33]: 239 µg/L | Recovery ratio with respect to Hb concentration after 0 days [33]: 100% | Hb concentration [34]: 198 µg/L | Recovery ratio with respect to Hb concentration after 0 days [34]: 83% | Hb concentration [35]: 183 µg/L | Recovery ratio with respect to Hb concentration after 0 days [35]: 77% | Hb concentration [36]: 178 µg/L | Recovery ratio with respect to Hb concentration after 0 days [36]: 74% | apparent recovery ratio (addition of 50 mmol/L or more phenylboronic acid): decreased | decrease in the apparent recovery ratios (phenylboronic acid 50 mmol/L in preservation solutions to which a sugar (100 mmol/L) was added): not observed | phenylboronic acid concentration at which the recovery ratio of hemoglobin reached the maximum (samples containing feces, 37° C.): 15 mmol/L | improvement of recovery ratio by addition of phenylboronic acid (samples containing no fecal specimens): not observed

Reference: patent publication US12215140B2, “Method of stabilizing protein contained in specimen and solution for stabilizing protein contained in specimen” (EIKEN KAGAKU KABUSHIKI KAISHA, priority 2018, dated 2025)
